The target in assay [1] is T1, COX-1 (Homo sapiens, UniProt P23219). Description: microsomal enzyme assay, percent inhibition at […] (only […] at […]). The format is cell-free. Also noted: gene PTGS1; recombinant human COX-1, microsomes from transfected Sf9 cells.
For assay [2], the target named is T1, COX-1. Further details: gene PTGS1.
Assay [3] deals with T1, COX-1. Put plainly: microsomal enzyme assay, percent inhibition at […] (marginal, […], at […]). The format is biochemical. Also noted: gene PTGS1; recombinant human COX-1, microsomes from transfected Sf9 cells.

Each structure is given as a SMILES string.

The term inhibition denotes the drop in the measured response relative to a control, in per cent. The IC50 is the concentration that inhibits the measured activity by half.

T1 sequence (P23219 24-599): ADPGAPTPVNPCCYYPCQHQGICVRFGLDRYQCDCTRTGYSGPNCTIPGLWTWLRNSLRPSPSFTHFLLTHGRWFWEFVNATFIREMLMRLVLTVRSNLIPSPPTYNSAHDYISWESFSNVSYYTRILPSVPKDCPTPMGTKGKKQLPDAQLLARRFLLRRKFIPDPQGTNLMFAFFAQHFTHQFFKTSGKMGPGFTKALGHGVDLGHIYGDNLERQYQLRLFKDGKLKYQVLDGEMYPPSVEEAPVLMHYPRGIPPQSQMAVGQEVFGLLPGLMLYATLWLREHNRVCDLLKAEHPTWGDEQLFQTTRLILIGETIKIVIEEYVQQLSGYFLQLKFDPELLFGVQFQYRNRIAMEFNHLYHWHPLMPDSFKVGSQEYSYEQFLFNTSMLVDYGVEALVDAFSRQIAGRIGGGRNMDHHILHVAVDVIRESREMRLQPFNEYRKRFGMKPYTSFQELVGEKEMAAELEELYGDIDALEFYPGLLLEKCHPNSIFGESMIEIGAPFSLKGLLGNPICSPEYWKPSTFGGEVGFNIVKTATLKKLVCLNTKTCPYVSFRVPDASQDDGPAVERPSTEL

In the case of `Cc1ccc(C)c(OCCCC(C)(C)C(=O)O)c1` [gemfibrozil], in assay [1], the inhibition at 250 µM came out at 18%. For the compound `CC(C)(Oc1ccc(C(=O)c2ccc(Cl)cc2)cc1)C(=O)O` [fenofibric acid], it took 950 µM to reach half-maximal inhibition in assay [2] (IC50). For `CC(C)(Oc1ccc(Cl)cc1)C(=O)O` [clofibric acid], the inhibition at 250 µM in assay [3] came to 14%.

The values are drawn from PMC4298667, “Chemical and protein structural basis for biological crosstalk between PPARα and COX enzymes” (Journal of Computer-Aided Molecular Design, 2014).
